# Data reported in publication PMC9610285 (Pharmaceutics, 2022).
# Experiments:
# [1] = cited from earlier work
# [2] = healthy volunteers, 1 mg single oral dose
structure (smiles),measurement,setting,value
"C#CCN[C@@H]1CCc2ccccc21 [rasagiline, Rasagiline]",capacity to cross the blood-brain barrier,[1],high capacity to cross the blood-brain barrier
same,elimination half-life (t1/2),[1],36 to 120 min
same,oral bioavailability,[1],36%
same,plasma protein binding,[1],60–70%
same,urine elimination,[1],62.6%
same,tmax (time to reach Cmax),[1]; oral tablet,approximately 0.5 h
same,adverse drug reactions (AEs causally related to rasagiline intake),[2],Only one AE (headache)
